Reference: US9096643B2, “Cell-protective peptides and uses thereof” (priority 2010, dated 2015)

How the values were obtained:
Type in all cases: cell-based
[1] = tested on: human iPS cells 0901B; assay: Pluripotency markers Oct4 and SSEA4 by FACS; settings: 50 μM, five passages, FIG. 15
Description: (§1) Analytical flow cytometry was performed on a FACSCalibur flow cytometer (BD Biosciences) as described in Chiang et al. Acta Biomater. 6, 1904-1916 (2010), with an additional permeabilization step with 0.25% Triton-X (Sigma) for 10 min at 4° C. Oct4 (Millipore), SSEA-4 (Developmental Studies Hybridoma Bank) and Ki67 (Millipore) and all secondary antibodies (Jackson ImmunoResearch) were used at 1:100.

[2] = tested on: human iPS cells BJ1D; assay: Pluripotency markers Oct4 and SSEA4 by FACS; settings: 50 μM, five passages, FIG. 14
Description: as §1

[3] = tested on: human iPS cells 0901B; assay: BrdU assay of iPS cell proliferation; settings: 50 μM, 5 passages, FIG. 17
Description: (§2) After 5 passages in treatment, human iPS cells were passaged as described above in the presence of 50 μM QHREDGS, 50 μM DGQESHR (Biomatik), or PBS (Lonza) onto MEF plates and grown for 3 days. Cultures were pulsed for 1 hr with 10 μM BrdU (Sigma) and immediately analyzed for immunohistochemistry (see below). Ki67 (Millipore, 1:300) co-staining was used to differentiate MEFs from human iPS cells. All samples were counterstained with DAPI (300 nM, Sigma).

[4] = tested on: human iPS cells BJ1D; assay: BrdU assay of iPS cell proliferation; settings: 50 μM, 5 passages, FIG. 16
Description: as §2

QHREDGS (angiopoietin 1 peptide)
expression of Oct4 and SSEA4 (FACS) [1]: comparable to both PBS and DGQESHR scrambled peptide controls | expression of Oct4 and SSEA4 (FACS) [2]: comparable to both PBS and DGQESHR scrambled peptide controls | rate of proliferation (BrdU incorporation, 1 hr pulse) [3]: remained the same | rate of proliferation (BrdU incorporation, 1 hr pulse) [4]: remained the same
